Data taken from US10196390B2, “TYK2 inhibitors and uses thereof” (Nimbus Lakshmi, Inc., priority 2014, dated 2019).

Experiments:
[1] = biological target: TYK2 (Homo sapiens (Human), UniProt P29597); assay: Tyk2 activity inhibition assay (radioactive kinase assay / Caliper assay); assay type: biochemical
In short: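 Radiometric format: TYK2 with peptide substrate (20 μM) and 33P-ATP at 10 μM in HEPES pH 7.5, 1% DMSO, 120 min at room temp, P81 paper capture. Caliper mobility-shift format: TYK2 9.75 nM, peptide 30 at 3 uM, ATP 16 uM (also 1 mM), 25 min at 28° C.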

[2] = biological target: JAK2 (Homo sapiens (Human), UniProt O60674); assay: JAK2 activity inhibition assay (radioactive kinase assay / Caliper assay); assay type: biochemical; conditions: read-out: JAK2 Ki
In short: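 Mobility-shift (Caliper) read-out of phosphorylated peptide substrate. Compound diluted in 25 mM HEPES pH 7.5, 0.01% Brij-35, 0.01% Triton, 0.5 mM EGTA; enzyme added, then peptide plus ATP in 10 mM MgCl2. Incubated 25 min at 28° C, stopped with EDTA buffer.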

Sequence of JAK2 (O60674 whole entry): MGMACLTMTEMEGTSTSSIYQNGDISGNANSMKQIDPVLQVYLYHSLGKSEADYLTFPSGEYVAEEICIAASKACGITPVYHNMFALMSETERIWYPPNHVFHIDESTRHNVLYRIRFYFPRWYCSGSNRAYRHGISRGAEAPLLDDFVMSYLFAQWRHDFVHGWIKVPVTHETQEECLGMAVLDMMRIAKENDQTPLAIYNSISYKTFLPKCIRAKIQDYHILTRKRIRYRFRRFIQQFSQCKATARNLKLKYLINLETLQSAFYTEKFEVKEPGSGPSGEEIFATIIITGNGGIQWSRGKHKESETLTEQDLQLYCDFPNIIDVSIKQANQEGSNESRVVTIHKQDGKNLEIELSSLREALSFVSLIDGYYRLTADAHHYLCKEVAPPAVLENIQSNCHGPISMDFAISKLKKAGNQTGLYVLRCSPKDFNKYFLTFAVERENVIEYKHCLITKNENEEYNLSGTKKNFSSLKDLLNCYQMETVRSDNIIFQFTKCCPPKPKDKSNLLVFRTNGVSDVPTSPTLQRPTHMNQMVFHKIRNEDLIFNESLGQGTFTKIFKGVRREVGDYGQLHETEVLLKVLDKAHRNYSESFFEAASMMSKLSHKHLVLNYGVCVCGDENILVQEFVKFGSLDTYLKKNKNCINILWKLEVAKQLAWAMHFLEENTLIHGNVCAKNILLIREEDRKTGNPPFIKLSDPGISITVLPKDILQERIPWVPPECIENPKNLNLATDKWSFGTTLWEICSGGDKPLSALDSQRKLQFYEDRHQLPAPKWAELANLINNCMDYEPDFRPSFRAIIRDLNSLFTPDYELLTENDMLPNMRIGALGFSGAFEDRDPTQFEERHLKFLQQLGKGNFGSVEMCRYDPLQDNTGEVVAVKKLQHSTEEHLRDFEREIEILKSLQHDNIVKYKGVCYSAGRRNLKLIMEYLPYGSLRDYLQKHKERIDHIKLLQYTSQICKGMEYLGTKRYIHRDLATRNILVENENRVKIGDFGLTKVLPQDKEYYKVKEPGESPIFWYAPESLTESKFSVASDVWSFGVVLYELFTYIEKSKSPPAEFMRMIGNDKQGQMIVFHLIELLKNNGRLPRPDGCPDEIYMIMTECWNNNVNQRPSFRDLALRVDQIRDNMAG
Sequence of TYK2 (P29597 whole entry): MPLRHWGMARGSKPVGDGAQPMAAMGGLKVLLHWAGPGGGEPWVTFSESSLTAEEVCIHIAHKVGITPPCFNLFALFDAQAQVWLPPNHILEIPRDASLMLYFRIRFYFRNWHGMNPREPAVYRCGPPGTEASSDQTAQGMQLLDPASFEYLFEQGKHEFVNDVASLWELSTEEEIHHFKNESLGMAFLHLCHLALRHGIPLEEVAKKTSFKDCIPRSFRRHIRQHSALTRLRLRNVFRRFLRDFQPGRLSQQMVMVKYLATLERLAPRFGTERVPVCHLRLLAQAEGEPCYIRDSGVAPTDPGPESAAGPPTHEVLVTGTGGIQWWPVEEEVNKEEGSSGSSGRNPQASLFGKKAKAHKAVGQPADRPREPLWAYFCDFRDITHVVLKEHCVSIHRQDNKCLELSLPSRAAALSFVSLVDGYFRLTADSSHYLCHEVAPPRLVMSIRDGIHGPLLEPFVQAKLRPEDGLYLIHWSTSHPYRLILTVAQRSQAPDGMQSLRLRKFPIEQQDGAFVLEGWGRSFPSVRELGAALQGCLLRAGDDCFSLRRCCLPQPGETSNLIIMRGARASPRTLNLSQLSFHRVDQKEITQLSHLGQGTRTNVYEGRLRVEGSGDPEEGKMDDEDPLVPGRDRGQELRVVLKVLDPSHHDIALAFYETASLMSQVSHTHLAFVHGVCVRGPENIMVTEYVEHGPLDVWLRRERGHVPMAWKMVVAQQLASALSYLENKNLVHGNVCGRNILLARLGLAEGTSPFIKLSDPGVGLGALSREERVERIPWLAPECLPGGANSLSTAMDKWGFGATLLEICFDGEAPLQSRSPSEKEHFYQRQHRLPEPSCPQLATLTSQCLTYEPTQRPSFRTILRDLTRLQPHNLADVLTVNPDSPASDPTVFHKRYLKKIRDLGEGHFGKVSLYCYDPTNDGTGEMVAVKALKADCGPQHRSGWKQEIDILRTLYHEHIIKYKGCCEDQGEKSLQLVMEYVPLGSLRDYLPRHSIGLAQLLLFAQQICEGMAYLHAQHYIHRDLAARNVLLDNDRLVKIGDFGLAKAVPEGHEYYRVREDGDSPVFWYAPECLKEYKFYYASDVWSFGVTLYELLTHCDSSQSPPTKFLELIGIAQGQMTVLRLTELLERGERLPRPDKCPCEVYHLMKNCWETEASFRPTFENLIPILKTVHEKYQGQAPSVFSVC

CCOC(=O)Cc1ccc(Nc2nc(-c3c(Cl)cccc3Cl)nc3c2C(=O)NC3)cc1 [Compound I-5, ethyl 2-(4-((2-(2,6-dichlorophenyl)-5-oxo-6,7-dihydro-5H-pyrrolo[3,4-d]pyrimidin-4-yl)amino)phenyl)acetate]
Ki [1]: < 10 nM
Ki [2]: 100 to 1000 nM

COC(=O)[C@H]1C[C@H](Nc2nc(-c3c(F)cccc3F)nc3c2C(=O)NC3)C1 [Compound I-129, methyl (1r,3r)-3-((2-(2,6-difluorophenyl)-5-oxo-6,7-dihydro-5H-pyrrolo[3,4-d]pyrimidin-4-yl)amino)cyclobutane-1-carboxylate]
Ki [1]: > 1000 nM
Ki [2]: > 1000 nM

O=C1NCc2nc(-c3c(F)cccc3F)nc(Nc3ccc(C4CCN(CCN5CCOCC5)C4=O)cc3)c21 (centres unmarked) [Compound I-121, 2-(2,6-difluorophenyl)-4-((4-(1-(2-morpholinoethyl)-2-oxopyrrolidin-3-yl)phenyl)amino)-6,7-dihydro-5H-pyrrolo[3,4-d]pyrimidin-5-one]
Ki [1]: < 10 nM
Ki [2]: 100 to 1000 nM

O=C1NCc2nc(-c3c(F)cccc3F)nc(Nc3ccc(C4CCN(CCO)C4=O)cc3)c21 (centres unmarked) [Compound I-149, 2-(2,6-difluorophenyl)-4-((4-(1-(2-hydroxyethyl)-2-oxopyrrolidin-3-yl)phenyl)amino)-6,7-dihydro-5H-pyrrolo[3,4-d]pyrimidin-5-one]
Ki [1]: < 10 nM
Ki [2]: 100 to 1000 nM

N[C@@H]1CCCN(c2ccc(Nc3cc(-c4c(F)cccc4F)nc4c3C(=O)NC4)nc2)C1 [Compound I-159, (R)-4-((5-(3-aminopiperidin-1-yl)pyridin-2-yl)amino)-2-(2,6-difluorophenyl)-6,7-dihydro-5H-pyrrolo[3,4-b]pyridin-5-one]
Ki [1]: < 10 nM
Ki [2]: < 10 nM

CC(C(=O)O)c1ccc(Nc2nc(-c3c(F)cccc3F)nc3c2C(=O)NC3)cc1 (centres unmarked) [Compound I-189, 2-(4-((2-(2,6-difluorophenyl)-5-oxo-6,7-dihydro-5H-pyrrolo[3,4-d]pyrimidin-4-yl)amino)phenyl)propanoic Acid]
Ki [1]: < 10 nM
Ki [2]: 100 to 1000 nM

C[C@@]1(c2ccc(Nc3nc(-c4c(F)cccc4F)nc4c3C(=O)NC4)cc2)CCN(C2CCOCC2)C1=O [Compound I-125, (S)-2-(2,6-difluorophenyl)-4-((4-(3-methyl-2-oxo-1-(tetrahydro-2H-pyran-4-yl)pyrrolidin-3-yl)phenyl)amino)-6,7-dihydro-5H-pyrrolo[3,4-d]pyrimidin-5-one]
Ki [1]: < 10 nM
Ki [2]: 10 to 100 nM

CCNC(=O)[C@H]1C[C@H](Nc2nc(-c3c(F)cccc3F)nc3c2C(=O)NC3)C1 [Compound I-131, (1r,3r)-3-((2-(2,6-difluorophenyl)-5-oxo-6,7-dihydro-5H-pyrrolo[3,4-d]pyrimidin-4-yl)amino)-N-ethylcyclobutane-1-carboxamide]
Ki [1]: > 1000 nM
Ki [2]: > 1000 nM

CCNC(=O)Cn1cc(Nc2nc(-c3c(F)cccc3F)nc3c2C(=O)NC3)cn1 [Compound I-69, 2-(4-((2-(2,6-difluorophenyl)-5-oxo-6,7-dihydro-5H-pyrrolo[3,4-d]pyrimidin-4-yl)amino)-1H-pyrazol-1-yl)-N-ethylacetamide]
Ki [1]: 10 to 100 nM
Ki [2]: > 1000 nM

CN(C(=O)Cc1ccc(Nc2nc(-c3c(F)cccc3F)nc3c2C(=O)NC3)cc1)C1CCNCC1 [Compound I-22, 2-(4-((2-(2,6-difluorophenyl)-5-oxo-6,7-dihydro-5H-pyrrolo[3,4-d]pyrimidin-4-yl)amino)phenyl)-N-methyl-N-(piperidin-4-yl)acetamide]
Ki [1]: < 10 nM
Ki [2]: 10 to 100 nM

O=C(Cc1ccc(Nc2nc(-c3c(F)cccc3F)nc3c2C(=O)NC3)cc1)NCC1CNC1 [Compound I-72, N-(azetidin-3-ylmethyl)-2-(4-((2-(2,6-difluoro-phenyl)-5-oxo-6,7-dihydro-5H-pyrrolo[3,4-d]pyrimidin-4-yl)amino)-phenyl)acetamide]
Ki [1]: < 10 nM
Ki [2]: 100 to 1000 nM

CN1CCN[C@](C)(c2ccc(Nc3nc(-c4c(F)cccc4F)nc4c3C(=O)NC4)cc2)C1=O [Compound I-216, (R)-2-(2,6-difluorophenyl)-4-((4-(2,4-dimethyl-3-oxopiperazin-2-yl)phenyl)amino)-6,7-dihydro-5H-pyrrolo[3,4-d]pyrimidin-5-one]
Ki [1]: < 10 nM
Ki [2]: 100 to 1000 nM

O=C(O)Cc1ccc(Nc2nc(-c3ccccc3Cl)nc3c2C(=O)NC3)cc1 [Compound I-7, 2-(4-((2-(2-chlorophenyl)-5-oxo-6,7-dihydro-5H-pyrrolo[3,4-d]pyrimidin-4-yl)amino)phenyl)acetic Acid]
Ki [1]: 10 to 100 nM
Ki [2]: > 1000 nM

C[C@H](O)CNC(=O)Cc1ccc(Nc2nc(-c3c(F)cccc3F)nc3c2C(=O)NC3)cc1 [Compound I-75, (S)-2-(4-((2-(2,6-difluorophenyl)-5-oxo-6,7-dihydro-5H-pyrrolo[3,4-d]pyrimidin-4-yl)amino)phenyl)-N-(2-hydroxy-propyl)acetamide]
Ki [1]: < 10 nM
Ki [2]: 100 to 1000 nM

O=C(O)Cc1ccc(Nc2nc(-c3c(F)cccc3Cl)nc3c2C(=O)NC3)cc1 [Compound I-10, 2-(4-((2-(2-chloro-6-fluorophenyl)-5-oxo-6,7-dihydro-5H-pyrrolo[3,4-d]pyrimidin-4-yl)amino)phenyl)acetic Acid]
Ki [1]: < 10 nM
Ki [2]: 100 to 1000 nM

O=C(O)Cn1cc(Nc2nc(-c3c(F)cccc3F)nc3c2C(=O)NC3)cn1 [Compound I-71, 2-(4-((2-(2,6-difluorophenyl)-5-oxo-6,7-dihydro-5H-pyrrolo[3,4-d]pyrimidin-4-yl)amino)-1H-pyrazol-1-yl)acetic Acid]
Ki [1]: 10 to 100 nM
Ki [2]: > 1000 nM

CN1CCN[C@](C)(c2ccc(Nc3cc(-c4c(F)cccc4F)nc4c3C(=O)NC4)nc2)C1=O [Compound I-224, (R)-2-(2,6-difluorophenyl)-4-((5-(2,4-dimethyl-3-oxopiperazin-2-yl)pyridin-2-yl)amino)-6,7-dihydro-5H-pyrrolo[3,4-b]pyridin-5-one]
Ki [1]: < 10 nM
Ki [2]: < 10 nM

COc1ccc(Nc2nc(N3[C@H](C)CCC[C@@H]3C)nc3c2C(=O)NC3)cc1 [Compound I-183, 2-((2R,6S)-2,6-dimethylpiperidin-1-yl)-4-((4-methoxyphenyl)amino)-6,7-dihydro-5H-pyrrolo[3,4-d]pyrimidin-5-one]
Ki [1]: < 10 nM
Ki [2]: 10 to 100 nM

CC(C(=O)N1CCCCC1)c1ccc(Nc2nc(-c3c(F)cccc3F)nc3c2C(=O)NC3)cc1 (centres unmarked) [Compound I-198, 2-(2,6-difluorophenyl)-4-((4-(1-oxo-1-(piperidin-1-yl)propan-2-yl)phenyl)amino)-6,7-dihydro-5H-pyrrolo[3,4-d]pyrimidin-5-one]
Ki [1]: < 10 nM
Ki [2]: 100 to 1000 nM

N#Cc1cccc(F)c1-c1cc(Nc2ccc(N3CCOCC3)cn2)c2c(n1)CNC2=O [Compound I-281, 3-fluoro-2-(4-((5-morpholinopyridin-2-yl)amino)-5-oxo-6,7-dihydro-5H-pyrrolo[3,4-b]pyridin-2-yl)benzonitrile]
Ki [1]: < 10 nM
Ki [2]: < 10 nM

O=C(O)Cc1ccc(Nc2nc(-c3c(F)cncc3F)nc3c2C(=O)NC3)cc1 [Compound I-85, 2-(4-((2-(3,5-difluoropyridin-4-yl)-5-oxo-6,7-dihydro-5H-pyrrolo[3,4-d]pyrimidin-4-yl)amino)phenyl)acetic Acid]
Ki [1]: 10 to 100 nM
Ki [2]: > 1000 nM

O=C1NCc2nc(-c3c(F)cccc3F)nc(Nc3cnn(CC(=O)N4CCC[C@H]4CO)c3)c21 [Compound I-68, (S)-2-(2,6-difluorophenyl)-4-((1-(2-(2-(hydroxymethyl)pyrrolidin-1-yl)-2-oxoethyl)-1H-pyrazol-4-yl)amino)-6,7-dihydro-5H-pyrrolo[3,4-d]pyrimidin-5-one]
Ki [1]: 10 to 100 nM
Ki [2]: > 1000 nM

CCOC(=O)Cc1ccc(Nc2nc(-c3c(F)cccc3F)nc3c2C(=O)NC3)cc1 [Compound I-3, ethyl 2-(4-((2-(2,6-difluorophenyl)-5-oxo-6,7-dihydro-5H-pyrrolo[3,4-d]pyrimidin-4-yl)amino)phenyl)acetate]
Ki [1]: < 10 nM
Ki [2]: 100 to 1000 nM

O=C(NCCN1CCOCC1)c1ccc(Nc2nc(-c3c(F)cccc3F)nc3c2C(=O)NC3)cc1 [Compound I-127, 4-((2-(2,6-difluorophenyl)-5-oxo-6,7-dihydro-5H-pyrrolo[3,4-d]pyrimidin-4-yl)amino)-N-(2-morpholinoethyl)benzamide]
Ki [1]: < 10 nM
Ki [2]: 10 to 100 nM

O=C1NCc2nc(-c3c(F)cccc3F)nc(Nc3ccc([C@@H]4CCCNC4=O)cc3)c21 [Compound I-155, (S)-2-(2,6-difluorophenyl)-4-((4-(2-oxopiperidin-3-yl)phenyl)-amino)-6,7-dihydro-5H-pyrrolo[3,4-d]pyrimidin-5-one]
Ki [1]: < 10 nM
Ki [2]: 100 to 1000 nM

C[C@@H](O)CNC(=O)Cc1ccc(Nc2nc(-c3c(F)cccc3F)nc3c2C(=O)NC3)cc1 [Compound I-77, (R)-2-(4-((2-(2,6-difluorophenyl)-5-oxo-6,7-dihydro-5H-pyrrolo[3,4-d]pyrimidin-4-yl)amino)phenyl)-N-(2-hydroxy-propyl)acetamide]
Ki [1]: < 10 nM
Ki [2]: 100 to 1000 nM

O=C1NCc2nc(-c3c(F)cccc3F)cc(Nc3ccc(C4CCNC4=O)cn3)c21 (centres unmarked) [Compound I-133, 2-(2,6-difluorophenyl)-4-((5-(2-oxopyrrolidin-3-yl)pyridin-2-yl)amino)-6,7-dihydro-5H-pyrrolo[3,4-b]pyridin-5-one]
Ki [1]: < 10 nM
Ki [2]: 10 to 100 nM

O=C(Cc1ccc(Nc2nc(-c3c(F)cccc3F)nc3c2C(=O)NC3)cc1)NC1CCNCC1 [Compound I-11, 2-(4-((2-(2,6-difluorophenyl)-5-oxo-6,7-dihydro-5H-pyrrolo[3,4-d]pyrimidin-4-yl)amino)phenyl)-N-(piperidin-4-yl)acetamide]
Ki [1]: < 10 nM
Ki [2]: 100 to 1000 nM
